Reference: patent US20220146526A1, “METHOD FOR EVALUATING SAMPLE, ANALYSIS METHOD, METHOD FOR DETECTING DEGRADED SAMPLE, MARKER FOR DETECTING DEGRADED BLOOD PLASMA SAMPLE, AND MARKER FOR DETECTING DEGRADED SERUM SAMPLE” (SHIMADZU CORPORATION, priority 2019, published 2022)
Where “and” joins values, the source holds several entries; their conditions need not be identical. Identical values can stand only once.

Columns and labels:
Format in all cases: physicochemical, human
[1] = GC/MS of blood plasma sample: number of times of freezing and thawing (Table C); settings: for Rate of increase or decrease: detection intensity relative to 1 at 2 times; for Increase or decrease: detection intensity; for Rate of increase or decrease (second value, decrease) / Rate of increase or decrease (first value, increase): different from individual to individual, relative to 1 at 2 times; for Rate of increase or decrease (second value, decrease): individuals with decrease; for Rate of increase or decrease (first value, increase): individuals with increase
Summary of the method: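 Values express detection intensity as a ratio to the 2-cycle freeze-thaw sample (=1), compared with 4, 6 and 10 cycles. Healthy-donor EDTA plasma, cooled at ≤1 min or ≥5 min, spun at 4 °C, 3000 rpm, 15 min. Derivatised by methoxymation/trimethylsilylation; GC-MS/MS in MRM mode with electron ionization.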

[2] = GC/MS of blood plasma sample: time from blood collection to cooling of blood (Table B); set-up: key to Rate of increase or decrease / Rate of increase or decrease (first value, increase): detection intensity relative to 1 at cooling time ≤1 min; settings: for Rate of increase or decrease: detection intensity relative to 1 at 1 minute or less, blood collection to cooling 5 minutes; for Increase or decrease: detection intensity, blood collection to cooling 5 minutes or more vs 1 minute or less; for Rate of increase or decrease (second value, decrease) / Rate of increase or decrease (first value, increase): different from individual to individual, relative to 1 at 1 minute or less, collection to cooling 5 minutes; for Rate of increase or decrease (second value, decrease): individuals with decrease; for Rate of increase or decrease (first value, increase): individuals with increase
Procedure: At room temperature, 5 mL of blood from a healthy subject was taken into a blood-collecting vessel containing EDTA, and the blood-collecting vessel was inverted for mixing, then cooled, and allowed to stand at 4° C. Here, in order to investigate how the detection intensity of molecules contained in the sample was affected in a case where the time to cooling was set to 5 minutes or more as compared to that in a case where the time to cooling was set to 1 minute or less, preparations were performed under both the former condition and the latter condition. After standing, the blood sample was subjected to centrifugation under a condition of 4° C., 3000 rpm, and 15 minutes. […] After centrifugation, the blood-collecting vessel was left to stand at room temperature for 30 minutes, and the blood plasma was isolated during this 30 minutes. The obtained blood plasma sample was frozen and stored. Here, in order to investigate how the detection intensity of molecules contained in the sample was affected in cases where freezing and thawing was performed 4 times, 6 times, and 10 times after freezing as compared to that in a case where freezing and thawing was performed 2 times after freezing, freezing and thawing was performed under the respective conditions of 2, 4, 6, and 10 times.
Frozen blood plasma samples and serum samples were subjected to GC/MS or LC/MS. In GC/MS, the blood plasma samples and serum samples were subjected to methoxymation and trimethylsilylation and then introduced to GC-MS.
GC/MS was conducted using GCMS·TQ8040 (Shimadzu Corporation) that was a GC·MS equipped with AOC·20i (Shimadzu Corporation) as an autosampler.
Column: BPX5 (inner diameter of 0.25 mm, length of 30 m, and film thickness of 0.25 μm) (SGE)
Column temperature: maintained at 60° C. for 2 minutes, then raised at 15° C./min, and maintained at 330° C. for 3 minutes.
Inlet temperature: 250° C.
Carrier gas control mode: constant linear velocity of 39.0 cm/sec
Sample introduction method: split (split ratio of 30:1) Injection volume: 1 μL
Ionization method: electron ionization
Ionization current: 60 μA
Interface temperature: 280° C.
Ion source temperature: 200° C.
Mode: multiple reaction monitoring (MRM)
Table B presents compounds of which the detection intensity increased or decreased by 30% or more in a case where the time from blood collection to cooling of blood, when a blood plasma sample was analyzed by GC/MS, was set to 5 minutes or more as compared to that in a case where the time was set to 1 minute or less. The rate of increase or decrease in Table B is the value of detection intensity relative to 1 that is the detection intensity in a case where the time from blood collection to cooling is set to 1 minute or less.

[3] = GC/MS of serum sample: number of times of freezing and thawing (Table I); set-up: key to Rate of increase or decrease / Rate of increase or decrease (first value, increase): detection intensity relative to 2 freeze-thaw cycles = 1; settings: for Rate of increase or decrease: detection intensity relative to 1 at 2 times; for Number of times when compound is affected: detection intensity changed by 30% or more vs 2 times of freezing and thawing
Summary of the method: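 Detection intensities are ratios to the value after two freeze–thaw cycles, which is set as 1, compared against 4, 6 and 10 cycles. Analysis used methoxymation and trimethylsilylation derivatization, then GC/MS with EI ionization and multiple reaction monitoring on a BPX5 column. Serum came from blood held at room temperature and spun at 3500 rpm for 5 min.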

[4] = GC/MS of serum sample: time from blood collection to centrifugation (Table G); settings: for Increase or decrease: detection intensity; for Increase or decrease / Rate of increase or decrease: blood collection to centrifugation; for Rate of increase or decrease (second value, decrease) / Rate of increase or decrease (first value, increase): different from individual to individual, relative to 1 at 15 minutes, collection to centrifugation; for Rate of increase or decrease (second value, decrease): individuals with decrease; for Rate of increase or decrease (first value, increase): individuals with increase; for Rate of increase or decrease: detection intensity relative to 1 at 15 minutes
Summary of the method: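 Values express detection intensity as a ratio to the sample centrifuged 15 minutes after blood collection (taken as 1). Serum was derivatized by methoxymation and trimethylsilylation, then analysed by electron-ionization GC/MS using multiple reaction monitoring on a BPX5 column ramped from 60 to 330° C.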

[5] = GC/MS of blood plasma sample: time from blood collection to centrifugation (Table A); settings: for Rate of increase or decrease: detection intensity relative to 1 at 15 minutes; for Rate of increase or decrease / Increase or decrease: blood collection to centrifugation; for Increase or decrease: detection intensity; for Rate of increase or decrease (second value, decrease) / Rate of increase or decrease (first value, increase): different from individual to individual, relative to 1 at 15 minutes, collection to centrifugation; for Rate of increase or decrease (second value, decrease): individuals with decrease; for Rate of increase or decrease (first value, increase): individuals with increase
Summary of the method: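 Read-out is MRM detection intensity by electron-ionization GC/MS on a BPX5 column after methoxymation and trimethylsilylation, expressed relative to a 15-minute collection-to-centrifugation interval. Plasma was prepared from EDTA blood held at 4° C and spun at 4° C, 3000 rpm for 15 minutes, then frozen.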

[6] = GC/MS of serum sample: time from centrifugation to isolation (Table H); set-up: key to Rate of increase or decrease / Rate of increase or decrease (first value, increase): detection intensity relative to 1 at 30 min centrifugation-to-isolation; settings: for Rate of increase or decrease: detection intensity relative to 1 at 30 minutes; for Increase or decrease: detection intensity
Summary of the method: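 Values are GC/MS (EI, MRM) detection intensities of methoxymated/trimethylsilylated serum, normalised to 1 for the 30-min sample. Serum was isolated 30 min, 1 h or 6 h after room-temperature centrifugation (3500 rpm, 5 min) of blood.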

[7] = freezing and thawing 4 times vs 2 times
[8] = serum, GC/MS, freezing and thawing 4 times
[9] = serum, GC/MS, freezing and thawing 6 times
[10] = detection intensity, serum, GC/MS, freezing and thawing 4 times vs 2 times
[11] = detection intensity, serum, GC/MS, freezing and thawing 6 times vs 2 times
[12] = 10 times of freezing and thawing
[13] = serum sample, GC/MS, detection intensity vs 2 times of freezing and thawing

| Structure (SMILES) | Increase or decrease [1, 7] | Rate of increase or decrease [2] | Increase or decrease [2] | Rate of increase or decrease [3, 8] | Increase or decrease [3, 10] | Increase or decrease ([4]; after 4 hours vs 15 minutes) | Increase or decrease ([4]; after 8 hours vs 15 minutes) | Rate of increase or decrease ([6]; after 1 hour) | Increase or decrease ([6]; after 1 hour vs 30 minutes) | Rate of increase or decrease (second value, decrease) ([1]; freezing and thawing 4 times) | Rate of increase or decrease (first value, increase) ([1]; freezing and thawing 4 times) | Rate of increase or decrease ([4]; after 4 hours) | Increase or decrease ([5]; after 4 hours vs 15 minutes) | Rate of increase or decrease (second value, decrease) [2] | Rate of increase or decrease (first value, increase) [2] | Rate of increase or decrease ([5]; after 4 hours) | Rate of increase or decrease ([4]; after 8 hours) | other results |
| --- | --- | --- | --- | --- | --- | --- | --- | --- | --- | --- | --- | --- | --- | --- | --- | --- | --- | --- |
| OC[C@H]1O[C@@H](O[C@H]2[C@H](O)[C@@H](O)C(O)O[C@@H]2CO)[C@H](O)[C@@H](O)[C@H]1O (stereo partly drawn) [Lactose] | Increase | 0.56 | Decrease | 1.60 | Increase | Different from individual | Different from individual | 2.37 | Increase | – | – | – | – | – | – | – | – | Rate of increase or decrease ([1]; freezing and thawing 4 times): 1.40; Rate of increase or decrease [3, 9]: 1.33; Increase or decrease [3, 11]: Increase; Rate of increase or decrease (second value, decrease) ([4]; after 4 hours): 0.62; Rate of increase or decrease (second value, decrease) ([4]; after 8 hours): 0.65; Rate of increase or decrease (first value, increase) ([4]; after 4 hours): 1.31; Rate of increase or decrease (first value, increase) ([4]; after 8 hours): 3.99; Rate of increase or decrease ([5]; after 12 hours): 0.70; Increase or decrease ([5]; after 12 hours vs 15 minutes): Decrease; Rate of increase or decrease ([6]; after 6 hours): 1.43; Increase or decrease ([6]; after 6 hours vs 30 minutes): Increase |
| N[C@@H](CS(=O)O)C(=O)O [3-Sulfinoalanine] | Different from individual | 0.61 | Decrease | 0.47 | Decrease | Increase | – | 3.07 | Increase | 0.58 | 1.59 | 1.91 | Different from individual | – | – | – | – | Rate of increase or decrease (second value, decrease) ([5]; after 4 hours): 0.32; Rate of increase or decrease (first value, increase) ([5]; after 4 hours): 1.88 |
| OC[C@H]1O[C@@](CO)(O[C@H]2O[C@H](CO)[C@@H](O)[C@H](O)[C@H]2O)[C@@H](O)[C@@H]1O [Sucrose] | Decrease | – | Different from individual | – | – | Increase | – | 2.12 | Increase | – | – | 18.00 | Different from individual | 0.69 | 2.20 | – | – | Rate of increase or decrease ([1]; freezing and thawing 4 times): 0.53; Rate of increase or decrease [3, 12]: 0.64; Number of times when compound is affected ([3]; serum sample, GC/MS): 10 times; Increase or decrease [3, 13]: Decrease; Rate of increase or decrease (second value, decrease) ([5]; after 4 hours): 0.69; Rate of increase or decrease (first value, increase) ([5]; after 4 hours): 2.53 |
| Oc1ccccn1 [2-Hydroxypyridine] | Different from individual | 0.59 | Decrease | 0.50 | Decrease | Increase | – | 1.44 | Increase | 0.54 | 2.48 | 2.55 | Decrease | – | – | 0.57 | – | – |
| O[C@@H]1[C@@H](O)[C@@H]2OC[C@@H](O2)[C@H]1O [1,6-Anhydroglucose] | Different from individual | 0.62 | Decrease | 2.25 | Increase | – | Decrease | 2.25 | Increase | 0.42 | 3.49 | – | Increase | – | – | 1.42 | 0.62 | – |
| O=C(CO)[C@H](O)[C@H](O)[C@H](O)CO [Psicose] | Different from individual | – | Different from individual | 0.54 | Decrease | – | Decrease | 0.57 | Decrease | 0.70 | 1.77 | – | Increase | 0.43 and 0.27 | 3.24 and 1.94 | 4.33 | 0.65 | Rate of increase or decrease [3, 9]: 1.30; Increase or decrease [3, 11]: Increase |
| OC[C@H]1O[C@H](O[C@H]2O[C@H](CO)[C@@H](O)[C@H](O)[C@H]2O)[C@H](O)[C@@H](O)[C@@H]1O [Trehalose] | – | – | Different from individual | – | – | – | Increase | 1.45 | Increase | – | – | – | – | 0.58 | 5.01 | – | 1.50 | Rate of increase or decrease ([1]; freezing and thawing 6 times): 1.98; Increase or decrease ([1]; freezing and thawing 6 times vs 2 times): Increase; Rate of increase or decrease [3, 12]: 0.69; Number of times when compound is affected ([3]; serum sample, GC/MS): 10 times; Increase or decrease [3, 13]: Decrease; Rate of increase or decrease ([5]; after 8 hours): 0.56; Increase or decrease ([5]; after 8 hours vs 15 minutes): Decrease |
